Results taken from patent publication US12077555B2, “STAT degraders and uses thereof” (Kymera Therapeutics, Inc., priority 2019, dated 2024).

Biological target: STAT3 (Homo sapiens, UniProt P40763)
Experiment: Quantitation of STAT3 degradation in A549 cells by Western blot
Type: cell-based
Design: expressed in transfected cells; host or cells: A549
Conditions: read-out: A549 DC50, 24 hours, tested up to 30 μM or 10 μM
Description: Degradation of total cellular STAT3 protein in A549 was quantitatively measured using SDS-PAGE and Western blot analysis. A549 cells (5×10^5 cells/well, 2 mL) were seeded into 6-well plates and were incubated in the incubator under 5% CO2 overnight to reach ˜80% confluency. The next day, the culture medium was changed with 1 ml fresh media. Then, 1 mL of media containing 2× compound solution was added into the well to make the final concentration of 30 μM, 10 μM, 3 μM, 1 μM, 0.3 μM and 0 μM (DMSO). The media was thoroughly mixed and incubated for 24 hours at 37° C. under 5% CO2. Then, the culture media was removed from the assay plates and the cells were washed with ice-cold PBS twice. To prepare cell lysates, 200 ul pre-chilled RIPA lysis buffer (Boston BioProducts BP-115D) with protease/phosphatase inhibitor (Roche 05892791001/Roche 04906837001) was added directly into the well to lyse the cells for 20 minutes on ice. The cell lysates were then transferred to centrifuge tubes. Insoluble part of lysates was removed by centrifuging the lysates at 13000 rpm for 20 minutes. The supernatant was then collected and mixed with 5× loading buffer (Beyotime Bio P0015) to make the final samples for SDS-PAGE analysis. The samples were heated at 100° C. for 10 minutes and cool to room temperature before centrifuging at 13000 rpm for 20 minutes. To analyze the samples by SDS-PAGE, 10 ul samples were loaded onto SDS-PAGE gel (Novex, WG1403BOX) and the SDS-PAGE gel was run for 20 minutes at 80 V, then at 120 V for 1.5 hours. The SDS-PAGE gel was then transferred to nitrocellulose membrane using the wet-transfer method at 250 mA for 1.5 hours. The membrane was then blocked with LI-COR blocking buffer (LI-COR, 927-50000) for 1 hour and was probed with primary antibody (mouse anti-STAT3 (124H6) (CST #91395) 1:2000 or mouse anti-beta-Actin (8H10D10) (CST #3700) 1:10000) at 4° C. overnight. The membrane was then washed three times with TBST buffer and probed with secondary antibody (anti-mouse IgG (LI-COR, 926-68070), 1:5000) for 1 hour at room temperature. The membrane was then scanned on a LI-COR Odyssey instrument and was quantified using Image Studio Version 5.2. Concentration at 50% degradation (DC50) was calculated by fitting dose dependent degradation data using a sigmoidal equation using GraphPad Prism Version 8.0.

STAT3, sequence (P40763 whole entry): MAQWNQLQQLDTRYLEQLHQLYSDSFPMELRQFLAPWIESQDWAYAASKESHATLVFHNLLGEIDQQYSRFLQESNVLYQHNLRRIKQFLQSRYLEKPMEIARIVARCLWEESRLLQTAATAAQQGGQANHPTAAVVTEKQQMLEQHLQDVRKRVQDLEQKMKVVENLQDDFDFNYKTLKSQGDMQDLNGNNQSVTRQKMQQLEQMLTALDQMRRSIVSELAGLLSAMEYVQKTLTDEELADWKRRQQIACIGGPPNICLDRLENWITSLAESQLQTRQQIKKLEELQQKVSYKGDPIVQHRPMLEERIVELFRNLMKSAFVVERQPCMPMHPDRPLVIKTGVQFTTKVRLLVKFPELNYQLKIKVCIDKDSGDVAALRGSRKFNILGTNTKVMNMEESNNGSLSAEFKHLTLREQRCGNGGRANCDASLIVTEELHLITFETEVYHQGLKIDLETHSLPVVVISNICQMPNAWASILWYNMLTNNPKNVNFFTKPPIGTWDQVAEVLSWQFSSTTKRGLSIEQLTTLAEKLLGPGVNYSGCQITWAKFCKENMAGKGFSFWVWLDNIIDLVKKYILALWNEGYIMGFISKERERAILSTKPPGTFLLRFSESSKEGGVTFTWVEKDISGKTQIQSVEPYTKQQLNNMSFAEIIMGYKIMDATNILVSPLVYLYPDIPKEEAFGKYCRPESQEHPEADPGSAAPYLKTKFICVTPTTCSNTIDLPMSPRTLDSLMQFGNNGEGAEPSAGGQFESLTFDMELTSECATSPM

| Compound | DC50 |
| --- | --- |
| C/C(=C\C(=O)N[C@H]1CCc2cccc3c2N(C1=O)[C@H](C(=O)N[C@@H](CCC(N)=O)[C@@H](C)OCc1ccc(CCCOCCOCCOCCOc2cc(-c4scnc4C)ccc2CNC(=O)[C@@H]2C[C@@H](O)CN2C(=O)[C@@H](NC(=O)C2(F)CC2)C(C)(C)C)cc1)C3)c1ccc(C(F)(F)P(=O)(OCOC(=O)C(C)(C)C)OCOC(=O)C(C)(C)C)cc1 [Compound I-17] | > 30 µM |
| C/C(=C\C(=O)N[C@H]1CCc2cccc3c2N(C1=O)[C@H](C(=O)N[C@@H](CCC(N)=O)[C@@H](C)OCc1ccc(CCCCOCC(=O)N[C@H](C(=O)N2C[C@@H](O)C[C@H]2C(=O)NCc2ccc(-c4scnc4C)cc2)C(C)(C)C)cc1)C3)c1ccc(C(F)(F)P(=O)(OCOC(=O)C(C)(C)C)OCOC(=O)C(C)(C)C)cc1 [Compound I-21] | > 30 µM |
| C/C(=C\C(=O)N[C@H]1CCc2cccc3c2N(C1=O)[C@H](C(=O)N[C@@H](CCC(N)=O)[C@@H](C)OCc1ccc(CCCCOc2cc(-c4scnc4C)ccc2CNC(=O)[C@@H]2C[C@@H](O)CN2C(=O)[C@@H](NC(=O)C2(F)CC2)C(C)(C)C)cc1)C3)c1ccc(C(F)(F)P(=O)(OCOC(=O)C(C)(C)C)OCOC(=O)C(C)(C)C)cc1 [Compound I-26] | > 10 µM |
| C/C(=C\C(=O)N[C@H]1CCc2cccc3c2N(C1=O)[C@H](C(=O)N[C@@H](CCC(N)=O)[C@@H](C)OCc1ccc(CCOCCOCCOCCOCC(=O)N[C@H](C(=O)N2C[C@H](O)C[C@H]2C(=O)NCc2ccc(-c4scnc4C)cc2)C(C)(C)C)cc1)C3)c1ccc(C(F)(F)P(=O)(OCOC(=O)C(C)(C)C)OCOC(=O)C(C)(C)C)cc1 [Compound I-27] | > 10 µM |
| C/C(=C\C(=O)N[C@H]1CCc2cccc3c2N(C1=O)[C@H](C(=O)N[C@@H](CCC(N)=O)[C@@H](C)OCc1ccc(CCCCCCC(=O)N[C@H](C(=O)N2C[C@H](O)C[C@H]2C(=O)NCc2ccc(-c4scnc4C)cc2)C(C)(C)C)cc1)C3)c1ccc(C(F)(F)P(=O)(OCOC(=O)C(C)(C)C)OCOC(=O)C(C)(C)C)cc1 [Compound I-28] | < 30 µM |
| C/C(=C\C(=O)N[C@H]1CCc2cccc3c2N(C1=O)[C@H](C(=O)N[C@@H](CCC(N)=O)[C@@H](C)OCc1ccc(CCCOCCCCCc2cccc4c2n(C)c(=O)n4C2CCC(=O)NC2=O)cc1)C3)c1ccc(C(F)(F)P(=O)(OCOC(=O)C(C)(C)C)OCOC(=O)C(C)(C)C)cc1 (stereo partly shown) [Compound I-29] | > 10 µM |
| C/C(=C\C(=O)N[C@H]1CCc2cccc3c2N(C1=O)[C@H](C(=O)N[C@@H](CCC(N)=O)[C@@H](C)OCc1ccc(CCOCCOCCOCC(=O)N[C@H](C(=O)N2C[C@H](O)C[C@H]2C(=O)NCc2ccc(-c4scnc4C)cc2)C(C)(C)C)cc1)C3)c1ccc(C(F)(F)P(=O)(OCOC(=O)C(C)(C)C)OCOC(=O)C(C)(C)C)cc1 [Compound I-30] | > 10 µM |
| C/C(=C\C(=O)N[C@H]1CCc2cccc3c2N(C1=O)[C@H](C(=O)N[C@@H](CCC(N)=O)[C@@H](C)OCc1ccc(CCOCCOCC(=O)N[C@H](C(=O)N2C[C@H](O)C[C@H]2C(=O)NCc2ccc(-c4scnc4C)cc2)C(C)(C)C)cc1)C3)c1ccc(C(F)(F)P(=O)(OCOC(=O)C(C)(C)C)OCOC(=O)C(C)(C)C)cc1 [Compound I-31] | > 30 µM |
| C/C(=C\C(=O)N[C@H]1CCc2cccc3c2N(C1=O)[C@H](C(=O)NC(CCC(N)=O)[C@@H](C)OCc1ccc(CCCOCCOCCOCCOCC(=O)N[C@H](C(=O)N2C[C@H](O)C[C@H]2C(=O)NCc2ccc(-c4scnc4C)cc2)C(C)(C)C)cc1)C3)c1ccc(C(F)(F)P(=O)(OCOC(=O)C(C)(C)C)OCOC(=O)C(C)(C)C)cc1 (stereo partly shown) [Compound I-32] | > 10 µM |
| C/C(=C\C(=O)N[C@H]1CCc2cccc3c2N(C1=O)[C@H](C(=O)NC(CCC(N)=O)[C@@H](C)OCc1ccc(CCCOCCOCCOCC(=O)N[C@H](C(=O)N2C[C@H](O)C[C@H]2C(=O)NCc2ccc(-c4scnc4C)cc2)C(C)(C)C)cc1)C3)c1ccc(C(F)(F)P(=O)(OCOC(=O)C(C)(C)C)OCOC(=O)C(C)(C)C)cc1 (stereo partly shown) [Compound I-33] | > 10 µM |
| C/C(=C\C(=O)N[C@H]1CCc2cccc3c2N(C1=O)[C@H](C(=O)NC(CCC(N)=O)[C@@H](C)OCc1ccc(CCCCOCC(=O)N[C@H](C(=O)N2C[C@H](O)C[C@H]2C(=O)NCc2ccc(-c4scnc4C)cc2)C(C)(C)C)cc1)C3)c1ccc(C(F)(F)P(=O)(OCOC(=O)C(C)(C)C)OCOC(=O)C(C)(C)C)cc1 (stereo partly shown) [Compound I-34] | < 30 µM |
| C/C(=C\C(=O)N[C@H]1CCc2cccc3c2N(C1=O)[C@H](C(=O)NC(CCC(N)=O)[C@@H](C)OCc1ccc(CCCOCC(=O)N[C@H](C(=O)N2C[C@H](O)CC2C(=O)NCc2ccc(-c4scnc4C)cc2)C(C)(C)C)cc1)C3)c1ccc(C(F)(F)P(=O)(OCOC(=O)C(C)(C)C)OCOC(=O)C(C)(C)C)cc1 (stereo partly shown) [Compound I-35] | < 30 µM |
| C/C(=C\C(=O)N[C@H]1CCc2cccc3c2N(C1=O)[C@H](C(=O)NC(CCC(N)=O)[C@@H](C)OCc1ccc(CCCOCCCCCc2ccc4c(c2)n(C)c(=O)n4C2CCC(=O)NC2=O)cc1)C3)c1ccc(C(F)(F)P(=O)(OCOC(=O)C(C)(C)C)OCOC(=O)C(C)(C)C)cc1 (stereo partly drawn) [Compound I-36, [([4-[(1E)-1-[[(2S,11S)-2-[[(3S,4R)-1-carbamoyl-4-([4-[3-([5-[1-(2,6-dioxopiperidin-3-yl)-3-methyl-2-oxo-1,3-benzodiazol-5-yl]pentyl]oxy)propyl]phenyl]methoxy)pentan-3-yl]carbamoyl]-12-oxo-1-azatricyclo[6.4.1.0^[4,13]]trideca-4(13),5,7-trien-11-yl]carbamoyl]prop-1-en-2-yl]phenyl]difluoromethyl([(2,2-dimethylpropanoyl)oxy]methoxy)phosphoryl)oxy]methyl 2,2-dimethylpropanoate] | > 10 µM |
| C/C(=C\C(=O)N[C@H]1CCc2cccc3c2N(C1=O)[C@H](C(=O)NC(CCC(N)=O)[C@@H](C)OCc1ccc(CCCOCCOCC(=O)N[C@H](C(=O)N2C[C@H](O)C[C@H]2C(=O)NCc2ccc(-c4scnc4C)cc2)C(C)(C)C)cc1)C3)c1ccc(C(F)(F)P(=O)(OCOC(=O)C(C)(C)C)OCOC(=O)C(C)(C)C)cc1 (stereo partly shown) [Compound I-37] | > 10 µM |
| C/C(=C\C(=O)N[C@H]1CCc2cccc3c2N(C1=O)[C@H](C(=O)N[C@@H](CCC(N)=O)[C@@H](C)OCc1ccc(CCCCCOCCCc2cccc4c2n(C)c(=O)n4C2CCC(=O)NC2=O)cc1)C3)c1ccc(C(F)(F)P(=O)(OCOC(=O)C(C)(C)C)OCOC(=O)C(C)(C)C)cc1 (stereo partly drawn) [Compound I-38, [([4-[(1E)-1-[[(2S,11S)-2-[[(3S,4R)-1-carbamoyl-4-[[4-(5-[3-[1-(2,6-dioxopiperidin-3-yl)-3-methyl-2-oxo-1,3-benzodiazol-4-yl]propoxy]pentyl)phenyl]methoxy]pentan-3-yl]carbamoyl]-12-oxo-1-azatricyclo[6.4.1.0^[4,13]]trideca-4(13),5,7-trien-11-yl]carbamoyl]prop-1-en-2-yl]phenyl]difluoromethyl([(2,2-dimethylpropanoyl)oxy]methoxy)phosphoryl)oxy]methyl 2,2-dimethylpropanoate] | > 10 µM |
| C/C(=C\C(=O)N[C@H]1CCc2cccc3c2N(C1=O)[C@H](C(=O)NC(CCC(N)=O)[C@@H](C)OCc1ccc(CCCOCCCCCOCCCc2cccc4c2n(C)c(=O)n4C2CCC(=O)NC2=O)cc1)C3)c1ccc(C(F)(F)P(=O)(OCOC(=O)C(C)(C)C)OCOC(=O)C(C)(C)C)cc1 (stereo partly shown) [Compound I-43] | > 30 µM |
| C/C(=C\C(=O)N[C@H]1CCc2cccc3c2N(C1=O)[C@H](C(=O)NC(CCC(N)=O)[C@@H](C)OCc1ccc(CCCOCCCCCCOCCCc2cccc4c2n(C)c(=O)n4C2CCC(=O)NC2=O)cc1)C3)c1ccc(C(F)(F)P(=O)(OCOC(=O)C(C)(C)C)OCOC(=O)C(C)(C)C)cc1 (stereo partly shown) [Compound I-44] | > 30 µM |
| C/C(=C\C(=O)N[C@H]1CCc2cccc3c2N(C1=O)[C@H](C(=O)N[C@@H](CCC(N)=O)[C@@H](C)OCc1ccc(CCCOCCOCCCc2ccc4c(c2)n(C)c(=O)n4C2CCC(=O)NC2=O)cc1)C3)c1ccc(C(F)(F)P(=O)(OCOC(=O)C(C)(C)C)OCOC(=O)C(C)(C)C)cc1 (stereo partly shown) [Compound I-54] | > 30 µM |
| C/C(=C\C(=O)N[C@H]1CCc2cccc3c2N(C1=O)[C@H](C(=O)N[C@@H](CCC(N)=O)[C@@H](C)OCc1ccc(CCCOCCOCCOCCCc2ccc4c(c2)n(C)c(=O)n4C2CCC(=O)NC2=O)cc1)C3)c1ccc(C(F)(F)P(=O)(OCOC(=O)C(C)(C)C)OCOC(=O)C(C)(C)C)cc1 (stereo partly shown) [Compound I-55] | > 30 µM |
